Experimental data as given in patent publication US9494572B2, “Method and compositions for treating cancer and related methods” (Icahn School of Medicine at Mount Sinai, priority 2011, dated 2016).
pIC50: −log10 of the molar value. Like-named read-outs stand apart in the source and are kept apart here. One block for each molecule: values may come before it.

Legend:
[1] = cited from earlier work
[2] = system: H1650 cell line; assay: Apoptosis (FACS sub-G1, cleaved PARP and Caspase 3) in H1650; format: cell-based, human
Experimental: (§1) Cells treated with drug or transfected with siRNA were stained with propidium iodide to ascertain DNA content and determine cell cycle distribution within the cell population as previously described. […] Sub-G1 peaks were analyzed on DNA histograms; hypo diploid DNA represented dead cells. This fraction indicated apoptotic as well as necrotic cells. Apoptosis was further validated by Caspase 3 and PARP cleavage through western blotting.
(§2) The role of KLF6 in induction of apoptosis in response to anti-EGFR therapeutics was further tested in cell culture.

[3] = system: H1650; assay: Cell viability, H1650; format: cell-based; conditions: Homo sapiens, NCI-H1650
[4] = system: A549luc; assay: Cell viability, A549luc; format: cell-based; conditions: Homo sapiens
[5] = system: H3255; assay: Cell viability, H3255; format: cell-based; conditions: Homo sapiens, NCI-H3255
[6] = system: FOXO1; assay: FOXO1 immunocytochemistry in H1650 cells; conditions: 20 μM, 48 hours, vs untreated
Experimental: Viability of cells line H1650, A549luc and H3255 were determined for cells grown in control medium and medium supplemented with 10 μM, 20 μM and 40 μM chlorpromazine.
H1650 cells were plated on glass coverslips at a density of 150,000 cells in complete RPMI media. […] After incubation with a secondary goat anti-Rabbit IgG (1:1000), (H+L) FITC conjugate (Millipore, P307F), cover slips were mounted with Vectashield DAPI counterstain (H1200) and visualized under fluorescent microscope. A total of 100 cells per condition were counted to determine the distribution of FOXO1 in the cytoplasm vs. the nucleus.

[7] = system: KLF6; assay: KLF6 mRNA and protein expression in H1650; format: cell-based, human; conditions: 40 μM TFP, 1 h and 48 h
Experimental: (§3) RNA was isolated from cell lines and tumor samples using the RNeasy Mini Kit (Qiagen) as per manufacturer's instructions. For each PCR reaction, 1 μg RNA was reverse transcribed using iScript cDNA synthesis kit (BioRad Laboratories). Each cDNA sample was subjected to sequence-specific partial amplification with specific primers and the SYBR green PCR Master Mix (Applied Biosystems) on an ABI PRISM 7900HT plate-reader instrument. […] The following primers were also used: FOXO1 forward 5′ […]
as §2

[8] = system: FOXO1; assay: Nuclear cytoplasmic fractionation of H1650; format: cell-based, human; conditions: 20 μM, 1 h
Experimental: H1650 cells were seeded and grown to 60-70% confluency, and treated with increasing doses of TFP. Cell lysates were extracted using NE-PER Nuclear and Cytoplasmic Extraction Reagents (Thermo Scientific) according to supplier's protocol.
Trifluoperazine Hydrochloride (TFP), a FDA-approved antipsychotic and antiemetic, is an effective nuclear export inhibitor of the FOXO1 transcription factor that increases FOXO1 nuclear localization via calmodulin inhibition upstream of AKT and downstream of PI3K. Kau, T. R., et al. Cancer Cell 4, 463-476 (2003). TFP was used to inhibit nuclear export of FOXO1 and determine if activation of the FOXO1/KLF6 transcriptional network could restore sensitivity to the PTEN-depleted, erlotinib-resistant cell line, H1650. To examine the effect of TFP on nuclear localization of FOXO1 and, subsequently, KLF6 expression, H1650 cells were treated for 1 h with increasing doses of TFP (0, 20 μM, 40 μM) and fractionated into nuclear and cytoplasmic fractions. BRCA1 served as a nuclear marker and GAPDH served as a cytoplasmic marker for the fractionation.

[9] = system: H1650 xenograft tumors; assay: Tumorgenicity assay, H1650 xenograft; format: in vivo, nude mice; conditions: i.p., erlotinib 25 mg/kg, TFP 10 mg/kg, four treatments
Experimental: H1650 cells (5×10^6) were similarly injected into the right flank of 6 to 8-week old female BALB/c nu/nu mice. Tumor volume was assessed weekly as previously described by Sangodkar, J., et al., supra until volumes reached an average of 200 mm^3. […] A total of four treatments were given with a 48 h rest period.
Tumor growth was measured weekly until average tumor volume for all mice was approximately 200 mm^3. […] Tumor growth in H1650-injected nude mice was measured 24 hours after each drug injection. […] Lysate homogenates from treated and untreated tumors were run and probed in parallel (n=5); statistical significance of densitometry calculations indicated (*P<0.05; **P<0.01; ***P<0.001).

[10] = system: HCC827 cell line
Experimental: as §1
(§4) In addition, dysregulated activity of downstream mediators of EGFR signaling, such as PTEN, PI3K and K-Ras or amplification of the MET proto-oncogene can also drive the resistant phenotype.

[11] = system: A549 cell line; assay: Apoptosis (FACS sub-G1 fraction, cleaved PARP) in A549; format: cell-based, human
Experimental: as §1, §4

[12] = system: H2122 cell line; assay: Apoptosis (FACS sub-G1 fraction, cleaved PARP) in H2122; format: cell-based, human
Experimental: as §1, §4

[13] = system: H1975 cell line; assay: Apoptosis (FACS sub-G1 fraction, cleaved PARP) in H1975; format: cell-based; conditions: Homo sapiens, NCI-H1975; H1975 (T790M EGFR); 72 h; read-out: IC50, erlotinib-mediated apoptosis
Experimental: as §1, §4

[14] = system: KLF6; assay: KLF6 mRNA and protein expression (qRT-PCR, western) in HCC827; format: cell-based, human
Experimental: as §3

[15] = system: KLF6; assay: KLF6 mRNA and protein expression in H2122; format: cell-based, human; conditions: 1 μM 72 h
Experimental: as §3

[16] = system: KLF6; assay: KLF6 mRNA and protein expression in A549; format: cell-based, human; conditions: 1 μM 72 h
Experimental: as §3

[17] = system: EGFR^L858R mutant mouse-derived tumors; conditions: in vivo
[18] = system: P-EGFR, P-AKT, P-FOXO1, T-FOXO1; assay: Western blot of EGFR-AKT-FOXO1 signaling in HCC827; format: cell-based, human
Experimental: EGFR activates two major downstream pathways, the Ras-Raf-MAPK and the PI3K-AKT signaling cascades, resulting in both increased cellular proliferation and survival. […] The role of PI3K-AKT signaling cascade was tested utilizing an antagonist of AKT signaling that acts by inhibiting of the PDK1 and 2 kinases that activate AKT.

[19] = system: FOXO1 and KLF6; format: cell-based, human
[20] = system: shLuc-HCC827; assay: Clonogenic assay, shLuc-HCC827; format: cell-based, human; conditions: control shLuc; 50 nM; 7 days
Experimental: HCC827 shLuc and shKLF6 were plated at a low density in 6-well plates. […] Cells were fixed and then stained with 1% crystal violet staining solution.

[21] = system: ERK and AKT
From the text: (§5) The variable sensitivity of the lung adenocarcinoma cell lines to anti-EGFR-based therapy was used to determine the effects of EGFR inhibition on KLF6 gene transcription.

[22] = system: ERK and AKT; remark: listed apart in the source
From the text: as §5

Compound: CSc1ccc2c(c1)N(CCC1CCCCN1C)c1ccccc1S2 (stereo not drawn) [thiordazine]
average daily clinical dose for CNS effect [1]: 13 µmol/kg

Compound: CN(C)CCCN1c2ccccc2Sc2ccccc21 [promazine]
average daily clinical dose for CNS effect [1]: 33 µmol/kg

pIC50 [3]: 4.70
pIC50 [4]: 4.70
pIC50 [5]: 5.10
Compound: CN(C)CCCN1c2ccccc2Sc2ccc(Cl)cc21 [chlorpromazine, 3-(2-chloro-10H-phenothiazin-10-yl)-N,N-dimethyl-propan-1-amine]
Apoptosis (sub-G1 propidium iodide staining) ([2]; increasing doses of CPZ, 48 hrs): increased amount of apoptosis
average daily clinical dose for CNS effect [1]: 12 µmol/kg
Nuclear accumulation of FOXO1 [6]: significant nuclear accumulation of FOXO1

Compound: OCCN1CCN(CC/C=C2/c3ccccc3Sc3ccc(Cl)cc32)CC1 [zuclopenthixol]
average daily clinical dose for CNS effect [1]: ~0.05 µmol/kg

Compound: CN(C)CCCN1c2ccccc2Sc2ccc(C(F)(F)F)cc21 [triflupromazine]
average daily clinical dose for CNS effect [1]: 6 µmol/kg

Compound: CN1CCN(CCCN2c3ccccc3Sc3ccc(C(F)(F)F)cc32)CC1 [TFP, 10-[3-(4-methylpiperazin-1-yl)propyl]-2-(trifluoromethyl)-10H-phenothiazine]
Apoptosis (FACS, cleaved PARP, cleaved Caspase 3) ([2]; 40 μM TFP, 1 h): increased apoptosis
KLF6 mRNA and protein [7]: upregulation of KLF6 mRNA and protein
Nuclear FOXO1 expression [8]: increased nuclear FOXO1 expression
Tumor growth rate [9]: decreased
average daily clinical dose for CNS effect [1]: 0.3 µmol/kg

Compound: OCCN1CCN(CCCN2c3ccccc3Sc3ccc(Cl)cc32)CC1 [perphenazine]
average daily clinical dose for CNS effect [1]: ~1 µmol/kg

Compound: C#Cc1cccc(Nc2ncnc3cc(OCCOC)c(OCCOC)cc23)c1 [erlotinib, [6,7-bis(2-methoxyethoxy)-4-quinazolin-4-yl]-(3-ethynylphenyl) amine]
Apoptosis (sub-G1 propidium iodide staining, cleaved PARP) [10]: significantly increased levels of apoptosis
Cleaved PARP [10]: increased cleaved PARP
Induction of apoptosis ([11]; A549): did not result in a significant induction of apoptosis
pIC50 ([11]; Homo sapiens, A549, 72 h, read-out: IC50, erlotinib-mediated apoptosis): < 6.30
Induction of apoptosis ([12]; H2122): did not result in a significant induction of apoptosis
pIC50 ([12]; Homo sapiens, NCI-H2122, 72 h, read-out: IC50, erlotinib-mediated apoptosis): < 6.30
pIC50 [13]: < 6.30
Apoptosis (sub-G1 propidium iodide staining, cleaved PARP) ([2]; 1 μM erlotinib, 48 h): no increase in apoptosis
KLF6 expression [14]: significant upregulated
KLF6 gene expression, endogenous mRNA and protein [14]: Significant upregulation
KLF6 expression, mRNA and protein [15]: still upregulated
KLF6 expression, mRNA and protein [16]: still upregulated
KLF6 expression in tumors [17]: increased KLF6 expression at both the mRNA and protein level
Spontaneous apoptosis, Caspase 3 cleavage in tumors [17]: increased Caspase 3 cleavage
Phosphorylated EGFR, AKT and FOXO1 [18]: reduced phosphorylated forms of EGFR, AKT and FOXO1
Total FOXO1 [18]: increased total amount of FOXO1
Nuclear localization of FOXO1 and KLF6 [19]: increased
Colony formation [20]: decreased colony formation
Tumor growth rate [9]: increased
Downstream ERK signaling [21]: no changes in downstream ERK signaling
Downstream ERK signaling [22]: no changes in downstream ERK signaling

Compound: OCCN1CCN(CC/C=C2/c3ccccc3Sc3ccc(C(F)(F)F)cc32)CC1 [flupentixol]
average daily clinical dose for CNS effect [1]: 0.01 µmol/kg

Compound: OCCN1CCN(CCCN2c3ccccc3Sc3ccc(C(F)(F)F)cc32)CC1 [fluphenazine]
average daily clinical dose for CNS effect [1]: 0.17 µmol/kg
